Assay results taken from patent US12116343B2, “Inhibitors of APOL1 and methods of using same” (Vertex Pharmaceuticals Incorporated, priority 2020, dated 2024).
pIC50: −log10 of the molar value.

What follows are compounds tested against T1, APOL1 G1 Protein (Homo sapiens, UniProt O14791, I384M/S342G) (assay: Trypanosoma brucei brucei lysis assay using APOL1 recombinant protein (AlamarBlue viability)). Conditions: Trypanosoma brucei brucei lysis, recombinant APOL1, AlamarBlue; read-out: Trypanosoma Assay (IC50).
T1 sequence (O14791 28-398 S342G/I384M): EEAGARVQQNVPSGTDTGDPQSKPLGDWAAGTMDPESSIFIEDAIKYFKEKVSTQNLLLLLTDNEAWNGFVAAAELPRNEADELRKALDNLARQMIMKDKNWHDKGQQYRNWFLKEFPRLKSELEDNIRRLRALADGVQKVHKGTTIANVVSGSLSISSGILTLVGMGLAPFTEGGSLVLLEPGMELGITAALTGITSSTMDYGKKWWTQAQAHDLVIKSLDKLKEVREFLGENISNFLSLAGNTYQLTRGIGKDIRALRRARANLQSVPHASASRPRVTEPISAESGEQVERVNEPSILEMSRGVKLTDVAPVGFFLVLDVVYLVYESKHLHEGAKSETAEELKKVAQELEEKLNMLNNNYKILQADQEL
Format: cell-based
From the text: Trypanosoma brucei brucei is a blood stream parasite to which human, gorillas and baboon are immune due to the presence of the APOL1 protein in their HDL particles. The protein is uptaken by the parasite via the TbHpHb receptor located in its flagellar pocket and is bonded by the Hpr protein contained in the HDL particles which triggers the receptor endocytosis by the parasite.
Following endocytosis, the formed vesicle containing the HDL particle matures from early to late endosome, and subsequently to lysosome. The concomitant pH change in the lumen of the vesicle triggers the insertion of the APOL1 protein into the membrane of the late endosome/lysosome and hereby triggers lysosomal membrane premeabilisation and as a further downstream event, trypanosome lysis. Trypanosoma brucei brucei is sensitive to lysis by all three APOL1 variants (G0, G1, and G2).
The Trypanosoma brucei brucei lysis assay is a lysis assay of the parasite using recombinant APOL1 protein variant followed by a fluorescent detection method of viability by the addition of AlamarBlue reagent to the assay well, a general metabolic redox indicator (AlamarBlue assay).
Briefly, the AlamarBlue active compound, the resazurin, a blue, water soluble, non-toxic and cell permeable molecule, which can be followed by absorbance, is reduced by various metabolic pathways into resorufin, a red compound which can be followed by either absorbance or fluorescence. The assay allows the calculation of the percent viability (percent of living Trypanosomes remaining in each well) at the end of a lysis relative to the untreated condition by interpolation of fluorescent values (FLU) on a standard curve with a known amount of seeded trypanosome/well.
Trypanosoma brucei brucei (ATCC, Cat. No. PRA-382) • Lister 427 VSG 221 bloodstream form.
Thaw/Expansion Media (ATCC Medium 2834 Modified HMI-9 Medium)
Assay Media (No Phenol Red/No FBS): Make on Day of Use
Hypoxanthine Stock (100×)-9 (10×)
Equipment • El-Clip Tip pipette 12 channel adjustable 2-125 μL, Cat. No. 4672070BT • ThermoFisher MultiDrop 384, Cat. No. 5840300 • Multidrop • Agilent Bravo, Cat. No. G5409A • Bravo • SpectraMax M5
Assay Ready Plates (ARPs) • ARPs comes in two formats: • […] final top concentration with a 2.5 fold dilution down. • […] final top concentration with a 3 fold dilution down. • Both have a 10 point Dose response. • 0.1% DMSO final in the Black Assay Plate. • Compounds are diluted 1000 fold in the Black Assay Plate. • Each plate is designed for 14 compounds in duplicate. • In the final Black Assay Plate:
Trypanosoma brucei brucei Culture
Step 2, Day 4 • Centrifuge at 800×g for 5 minutes at room temperature. • Resuspend in 1 mL media. • Make a 1:25 fold dilution (10 μL/240 μL media). • Count on a hemocytometer (after adding parasites). • Let sit for 1-2 minutes for the parasites to settle. • Count should be approximately 100 viable motile parasites/16 grid or approximately 25×10^6 parasites/flask. • Passage the parasites by adding 1×10^6 parasites/T75 flask in 20 mL media. • Passage the parasites by adding 2.33×10^6 parasites/T175 flask in 46.6 mL media. • For every T75 flask should make enough for approximately 1.5×384 well assay plates. • For every T175 flask should make enough for approximately 3.8×384 well assay plates.
Step 3, Day 6 • Centrifuge at 800×g for 5 minutes. • Resuspend in 3 mL assay media (No phenol red, no FBS) per 75 starting flask. • Resuspend in 7 mL assay media (No phenol red, no FBS) per 175 flask • Make a 1:25 fold dilution. • Count by hemocytometer. • Every T75 flask set up should have approximately 75×10^6 parasites/flask (verify doubling time=8.7 hrs±1 hr). • Every T175 flask set up should have approximately 175×10^6 parasites/flask (verify doubling time=8.7 hrs±1 hr). • Require 46×10^6 parasites per 384 well plate (at 120,000 parasites per well). Protocol B […]

Row | SMILES | pIC50
1 | O=C(N[C@H]1COC[C@@H]1O)[C@H]1C[C@H](c2c(-c3ccc(F)cc3)[nH]c3c(F)cc(F)cc32)C1 [Compound 184] | 6.00 to 6.60
2 | O=C(NC[C@H](O)C(F)(F)F)[C@H]1C[C@H](c2c(-c3ccc(F)cc3)[nH]c3c(F)cc(F)cc32)C1 [Compound 176] | > 6.60
3 | C[C@]1(NC(=O)[C@H]2C[C@H](c3c(-c4ccc(F)cc4)[nH]c4c(F)cc(F)cc43)C2)C[C@@H](O)C1 [Compound 211] | 6.00 to 6.60
4 | CC(C#N)(CO)NC(=O)[C@H]1C[C@H](c2c(-c3ccc(F)cc3)[nH]c3c(F)cc(F)cc32)C1 (some centres unmarked) [Compound 191] | > 6.60
5 | O=C(NC1(CO)CC(F)(F)C1)[C@H]1C[C@H](c2c(-c3ccc(F)cc3)[nH]c3c(F)cc(F)cc32)C1 [Compound 202] | > 6.60
6 | O=C(NC[C@H]1CC[C@@H](CO)O1)[C@H]1C[C@H](c2c(-c3ccc(F)cc3)[nH]c3c(F)cc(F)cc32)C1 [Compound 189] | < 6.00
7 | Cn1ccc(NC(=O)[C@H]2C[C@H](c3c(-c4ccc(F)cc4)[nH]c4c(F)cc(F)cc43)C2)n1 [Compound 22] | 6.00 to 6.60
8 | Cn1cc(CNC(=O)[C@H]2C[C@H](c3c(-c4ccc(F)cc4)[nH]c4c(F)cc(F)cc43)C2)cn1 [Compound 38] | 6.00 to 6.60
9 | O=C(N[C@H]1CC[C@@H]1O)[C@H]1C[C@H](c2c(-c3ccc(F)cc3)[nH]c3c(F)cc(F)cc32)C1 [Compound 178] | 6.00 to 6.60
10 | Cn1ncc(CNC(=O)[C@H]2C[C@H](c3c(-c4ccc(F)cc4)[nH]c4c(F)cc(F)cc43)C2)n1 [Compound 198] | > 6.60
11 | COC[C@@H]1CCN1C(=O)[C@H]1C[C@H](c2c(-c3ccc(F)cc3)[nH]c3c(F)cc(F)cc32)C1 [Compound 222] | > 6.60
12 | O=C([C@H]1C[C@H](c2c(-c3ccc(F)cc3)[nH]c3c(F)cc(F)cc32)C1)N1CCOC[C@H]1CO [Compound 217] | 6.00 to 6.60
13 | O=C1CCC(NC(=O)[C@H]2C[C@H](c3c(-c4ccc(F)cc4)[nH]c4c(F)cc(F)cc43)C2)C(=O)N1 (some centres unmarked) [Compound 26] | 6.00 to 6.60
14 | O=C([C@H]1C[C@H](c2c(-c3ccc(F)cc3)[nH]c3c(F)cc(F)cc32)C1)N1C[C@@H](O)[C@H](O)C1 [Compound 227] | 6.00 to 6.60
15 | C[C@@H](NC(=O)[C@H]1C[C@H](c2c(-c3ccc(F)cc3)[nH]c3c(F)cc(F)cc32)C1)C(N)=O [Compound 28] | < 6.00
16 | CC(C)(CO)NC(=O)[C@H]1C[C@H](c2c(-c3ccc(F)cc3)[nH]c3c(F)cc(F)cc32)C1 [Compound 31] | 6.00 to 6.60
17 | O=C([C@H]1C[C@H](c2c(-c3ccc(F)cc3)[nH]c3c(F)cc(F)cc32)C1)N1CC[C@H]1CO [Compound 206] | > 6.60
18 | COCCNC(=O)[C@H]1C[C@H](c2c(-c3ccc(F)cc3)[nH]c3c(F)cc(F)cc32)C1 [Compound 12] | 6.00 to 6.60
19 | COC[C@@H]1CCN1C(=O)[C@H]1C[C@H](c2c(-c3ccc(F)cc3)[nH]c3c(F)cc(F)cc32)C1 [Compound 220] | 6.00 to 6.60
20 | CC1(CO)CCN1C(=O)[C@H]1C[C@H](c2c(-c3ccc(F)cc3)[nH]c3c(F)cc(F)cc32)C1 (mixture of isomers) [Compound 218] | > 6.60
21 | O=C1NCCC1CNC(=O)[C@H]1C[C@H](c2c(-c3ccc(F)cc3)[nH]c3c(F)cc(F)cc32)C1 (some centres unmarked) [Compound 208] | < 6.00
22 | O=C(NCc1nnco1)[C@H]1C[C@H](c2c(-c3ccc(F)cc3)[nH]c3c(F)cc(F)cc32)C1 [Compound 171] | > 6.60
23 | C#CC(CO)NC(=O)[C@H]1C[C@H](c2c(-c3ccc(F)cc3)[nH]c3c(F)cc(F)cc32)C1 (some centres unmarked) [Compound 196] | > 6.60
24 | O=C(NC1(CO)CCOC1)[C@H]1C[C@H](c2c(-c3ccc(F)cc3)[nH]c3c(F)cc(F)cc32)C1 (some centres unmarked) [Compound 194] | > 6.60
25 | C[C@@H](CO)NC(=O)[C@H]1C[C@H](c2c(-c3ccc(F)cc3)[nH]c3c(F)cc(F)cc32)C1 [Compound 200] | > 6.60
26 | O=C(NCC(F)(F)F)[C@H]1C[C@H](c2c(-c3ccc(F)cc3)[nH]c3c(F)cc(F)cc32)C1 [Compound 33] | < 6.00
